Measured values taken from patent US8372808B2, “Suppression of glial fibrillary acidic protein” (Wisconsin Alumni Research Foundation, priority 2008, dated 2013).
Several values for one entry are separate records, joined by “and”; a condition that tells them apart may be missing. Identical values can stand only once.

Legend:
GFAP promoter = GFAP promoter activity in brain of Tg172.9 mice (Dual-Glo luciferase assay); type: in vivo, mouse
Protocol: Controls were injected with vehicle only. Brains were collected at various times post-injection, and analyzed for GFAP promoter activity using the Dual-Glo assay. Graphs present the mean±SEM (n=4 at each data point). Statistical significance was evaluated by unpaired t-test (* p<0.05). […] Brains were collected at 6 hours post-injection and analyzed for GFAP promoter activity using the Dual-Glo assay. Graphs present the mean±SD (n=4 at each data point). Statistical significance was evaluated by unpaired t-test (* p<0.05).
(§1) Another group of mice were injected with the same volume of vehicle alone (n=15). Brains were bisected sagittally with one half analyzed for GFAP promoter activity using the Dual-Glo assay, and the other half analyzed for GFAP protein using the sandwich ELISA. FIG. 7A is a bar graph showing hGFAP promoter activity of clomipramine-treated mice. The mice show a 26% reduction in hGFAP promoter activity compared to vehicle-treated controls. FIG. 7B is a bar graph showing the GFAP protein levels of clomipramine-treated mice. The mice show a 57% reduction in total GFAP content compared to vehicle-treated controls. Graphs present the mean±SD (* p<0.05, ***p<0.001, unpaired t-test).
(§2) At various times after injection, from 0-48 hours, brains were harvested for measurement of GFAP promoter activity using the Dual-Glo luciferase assay, and GFAP protein using a sandwich ELISA.
(§3) Injections were given in the afternoon, between 3-5 PM. Controls were transgenic littermates injected with vehicle alone. At the end of the three week course of injections (and one day after the last injection), brains were harvested for analysis of GFAP promoter activity and protein levels as described above.
To achieve significant reductions of GFAP protein in vivo may require chronic treatments, given the slow turnover of this protein. […] Controls were injected with vehicle alone. One day after the last injection, brains were harvested and assayed for both GFAP promoter activity and GFAP protein.

[1] = test system: 2.2 kb human GFAP promoter; assay: hGFAP promoter luciferase activity assay in 172.9 cells (primary astrocytes from dual luciferase transgenic mice); type: cell-based
Protocol: Cell-based assays were performed as four different screens using enriched cortical primary astrocyte cultures developed from transgenic mice expressing both firefly and Renilla luciferase reporter genes were generated. Briefly, the'firefly luciferase was placed under the control of a 2.2 kb human GFAP promoter to monitor GFAP transcription, and the Renilla luciferase was placed under the control of a 0.5 kb human GAPDH (glyceraldehyde 3-phosphate dehydrogenase) promoter to monitor transcription of a housekeeping gene for signal normalization. See section B, below for more detail regarding the development of transgenic mouse strains. Cells used in the following examples (e.g., the cortical primary astrocyte cells termed “172.9 cells,” described below) were developed from the transgenic mice described in section B.
Briefly, the cortices from individual pups were freed of meninges and placed into DMEM (Gibco) without serum, mechanically disassociated into single cells, suspended in medium containing DMEM supplemented with 10% fetal bovine serum (FBS; Hyclone), 100 U/ml penicillin, 100 μg/ml streptomycin (Gibco), seeded into T25 flasks (one brain per flask), and maintained in a humidified 5% CO2 atmosphere at 37° C. […] Medium was changed every 3 days. At 14-16 days in vitro (DIV), the flasks were shaken overnight at 200 rpm to remove oligodendrocytes and microglia. […] The cells were then suspended in DMEM with 10% FBS and plated (“passage 2”) on either 35 mm dishes, […], or 96-well plates (Corning) as needed. Cells were grown for varying days in vitro (DIV) at passage 2 and then used for various experiments. Tissue culture dishes and plates were pre-coated with 100 μg/ml poly-L-lysine for 1 h in a humidified 5% CO2 atmosphere at 37° C., and then allowed to air dry. […] Cell density was measured with the Vi-CELL cell counter (Beckman Coulter) or hemocytometer by the trypan-blue exclusion method. For simplicity, cells are referred to as “172.9 cells.”
Briefly, 172.9 cells were plated on poly-L coated white 96-well plates at a density of 5000 cells per well, in 100 μl DMEM with 10% FBS. At twenty-four hours, cells were exposed to the different compounds at a final concentration of 10 μM (diluted from a 50 mM stock) prepared in new medium (DMEM with 10% FBS). […] After exposure to compounds, luciferase activity in the primary and secondary screenings was determined by adding 30 μl of Bright-Glo™ reagent (Promega) to the 100 μl of media and cells of each well in the white 96-well plates with the Biomek® FX liquid handler (Beckman Coulter). After incubation for 1 minute at room temperature, signals were measured with the Safire 2 plate reader using Magellan™ software (Tecan). Other specific methods and equipment are known in the art and can be used to measure luciferase expression levels. This assay method is termed the “hGFAP promoter luciferase activity assay.” A reduction in luciferase expression as determined by this assay is termed “hGFAP promoter luciferase reduction.” For some assays that were aimed at confirming results of the initial screens, the same amount of Bright-Glo™ reagent was applied to each well in 96-well plates and signals were detected with the GloRunner™ Microplate Luminometer (Turner Biosystems) using the Dual-Glo® luciferase assay according to the manufacturer's recommendations (E1910, Promega).
In the secondary screen, cells were plated in a 96-well plate as described above for the primary screen.
Some compounds were unavailable outside of the library collections, and could not be further tested.
Each compound and concentration was analyzed in quadruplicate wells.
(§4) Compounds were tested at eight different concentrations ranging from 0-20 μM. In addition, GFAP protein levels were measured using a sandwich ELISA, which has greater sensitivity and is more accurate than the cell-based ELISA used in the primary screens.

GFAP protein [2] = assay: GFAP protein in brain of Tg172.9 mice (sandwich ELISA); type: in vivo, mouse
Protocol: as §1, §2, §3
To achieve significant reductions of GFAP protein in vivo may require chronic treatments, given the slow turnover of this protein. […] Controls were injected with vehicle alone. […]

GFAP protein [3] = assay: sandwich ELISA for GFAP protein in 172.9 cells, quaternary screen; type: cell-based, mouse; settings: 10 days of exposure, 0-20 μM
Protocol: as §4
The extracts were harvested from each well and the total GFAP content of each well was measured by a sandwich ELISA as described below. Briefly, separate microtiter plates were coated with SMI-26 anti-GFAP mouse monoclonal antibody cocktail (1:1000, Covance, diluted in PBS) overnight at 4° C., rinsed 3 times in PBS, and then blocked with Blotto (5% nonfat milk/PBS) for 2 h at RT. Samples from the astrocyte cell lysate (20 μl per well) were loaded onto the plates and brought up to 100 μl with 0.5% Triton X-100/PBS (a buffer used for subsequent antibody incubations and rinses), and incubated with a rabbit polyclonal anti-GFAP antibody (1:5000, DAKO) overnight at 4° C. The plates were rinsed three times and then incubated with HRP-conjugated goat anti-rabbit IgG (1:30,000, Sigma) for 2 h at RT. After three final rinses, peroxidase activity was detected using the Super Signal Femto maximum Sensitivity Substrate (Pierce) with a GloRunner microplate luminometer (Turner Biosystems). The GFAP content in the samples was determined from a standard curve generated using serial dilutions of purified GFAP (Research Diagnostics).

[4] = pilot studies with daily injections of clomipramine (tolerability); type: in vivo, mouse; settings: daily injections of 40 mg/kg; after 2 weeks
[5] = 40 mg/kg IP every other day for 3 weeks

CN(C)CCCN1c2ccccc2CCc2ccc(Cl)cc21 [clomipramine]
reduction in GFAP promoter activity compared to vehicle-treated controls (GFAP promoter; [5]): 26% | time at which promoter activity returned to normal (GFAP promoter; single 40 mg/kg IP, brain): ≤ 24 h | time of peak reduction in promoter activity after injection (GFAP promoter; single 40 mg/kg IP, brain): 4 to 6 h | reduction in promoter activity (GFAP promoter; single injection of 40 mg/kg IP, brains collected at 4 hours after injection): 38% | effect on promoter activity (GFAP promoter; single injection, doses of 5-20 mg/kg IP): without effect | concentrations found effective in cultured astrocytes ([1]; cultured astrocytes): 5 to 10 µM | reductions in luciferase activity ([1]; quaternary screen, 10 days of exposure, 0-20 μM): consistent reductions | % GFAP reductions, luciferace expression from hGFAP promoter ([1]; tertiary screen, 48 hr exposure, at the MTDcc): 66% | reduction in GFAP protein compared to vehicle-treated controls (GFAP protein [2]; [5]): 57% and ~50% | changes in GFAP protein levels (GFAP protein [2]; acute treatment, single IP injection, 0-48 hours): no changes | reductions in GFAP protein levels (GFAP protein [3]): consistent reductions | side effect of daily injections [4]: weight loss
